Test results taken from patent US20250325534A1, “MICROBIOCIDAL TETRAHYDROISOQUINOLINE DERIVATIVES” (SYNGENTA CROP PROTECTION AG, priority 2021, published 2025).

Key:
[1] = system: Puccinia recondita f. sp. tritici; experiment: Puccinia recondita f. sp. tritici / wheat / leaf disc preventative (brown rust); format: in vivo; details: foliar, inoculated 1 day after application
Experimental: Example B14: Puccinia recondita f. Sp. Tritici/Wheat/Leaf Disc Preventative (Brown Rust) Wheat leaf segments cv. Kanzler are placed on agar in multiwell plates (24-well format) and sprayed with the formulated test compound diluted in water. The leaf disks are inoculated with a spore suspension of the fungus 1 day after application. The inoculated leaf segments are incubated at 19° C. and 75% relative humidity under a light regime of 12 h light/12 h darkness in a climate cabinet and the activity of a compound is assessed as percent disease control compared to untreated when an appropriate level of disease damage appears in untreated check leaf segments (7-9 days after application).

Botryotinia fuckeliana = Botryotinia fuckeliana (Botrytis cinerea) / liquid culture (gray mould); format: cell-based; details: 72 h, growth inhibition photometrically 3-4 days after application, read-out: control of Botryotinia fuckeliana
Method in brief: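 Botrytis cinerea conidia in Vogels nutrient broth added to test compound delivered in DMSO. Incubated at 24 °C; growth inhibition measured photometrically 3–4 days after application.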

Sclerotinia sclerotiorum = Sclerotinia sclerotiorum / liquid culture (cottony rot); format: cell-based; details: 72 h, photometrically 3-4 days after application, read-out: control of Sclerotinia sclerotiorum
Experimental: Example B18: Sclerotinia sclerotiorum/Liquid Culture (Cottony Rot) Mycelia fragments of a newly grown liquid culture of the fungus are directly mixed into a nutrient broth (potato dextrose broth). After placing a DMSO solution of test compound into a microtiter plate (96-well format) the nutrient broth containing the fungal material is added. The test plates are incubated at 24° C. and the inhibition of growth is determined photometrically 3-4 days after application.

Alternaria solani = Alternaria solani / tomato / leaf disc (early blight); format: in vivo; details: foliar, inoculated 2 days after application, vs untreated control
[2] = system: Mycosphaerella graminicola; experiment: Mycosphaerella graminicola (Septoria tritici) / liquid culture (Septoria blotch); format: cell-based; details: Zymoseptoria tritici, 96 h, photometrically 4-5 days after application, read-out: control of Mycosphaerella graminicola
Method in brief: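 Growth inhibition measured by photometry 4-5 days post application, at 24° C incubation. Test compound supplied as DMSO solution; fungal conidia from cryostorage suspended directly in potato dextrose broth as inoculum.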

Mycosphaerella arachidis = Mycosphaerella arachidis (Cercospora arachidicola) / liquid culture (early leaf spot); format: cell-based; details: 96 h, photometrically 4-5 days after application, read-out: control of Mycosphaerella arachidis
Method in brief: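 Photometric growth inhibition, read 4-5 days post-application at 24 °C, of Cercospora arachidicola spores suspended in potato dextrose broth and exposed to test compound delivered from DMSO solution.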

Glomerella lagenarium = Glomerella lagenarium (Colletotrichum lagenarium) / liquid culture (anthracnose); format: cell-based; details: Colletotrichum orbiculare, 72 h, photometrically 3-4 days after application, read-out: control of Glomerella lagenarium
Method in brief: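 Conidia in potato dextrose broth added to test compound delivered as DMSO solution in microtiter plates; incubation at 24° C. Growth inhibition read photometrically 3-4 days after application.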

Pyrenophora teres = Pyrenophora teres / barley / leaf disc preventative (net blotch); format: in vivo; details: foliar, inoculated 2 days after application
Experimental: Example B16: Pyrenophora teres/Barley/Leaf Disc Preventative (Net Blotch) Barley leaf segments cv. Hasso are placed on agar in a multiwell plate (24-well format) and sprayed with the formulated test compound diluted in water. The leaf segments are inoculated with a spore suspension of the fungus 2 days after application. The inoculated leaf segments are incubated at 20° C. and 65% relative humidity under a light regime of 12 h light/12 h darkness in a climate cabinet and the activity of a compound is assessed as disease control compared to untreated when an appropriate level of disease damage appears in untreated check leaf segments (5-7 days after application).

Monographella nivalis = Monographella nivalis (Microdochium nivale) / liquid culture (foot rot cereals); format: cell-based; details: 96 h, photometrically 4-5 days after application, read-out: control of Monographella nivalis
Method in brief: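 Test compound, applied as a DMSO solution, was challenged with fungal spores suspended in potato dextrose broth; after 4-5 days at 24° C, photometric readout gave inhibition of growth.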

Phaeosphaeria nodorum = Phaeosphaeria nodorum (Septoria nodorum) / wheat / leaf disc preventative (glume blotch); format: in vivo; details: Parastagonospora nodorum, foliar, inoculated 2 days after application
Experimental: Example B9: Phaeosphaeria nodorum (Septoria nodorum)/Wheat/Leaf Disc Preventative (Glume Blotch) Wheat leaf segments cv. Kanzler are placed on agar in a multiwell plate (24-well format) and sprayed with the formulated test compound diluted in water. The leaf disks are inoculated with a spore suspension of the fungus 2 days after application. The inoculated test leaf disks are incubated at 20° C. and 75% relative humidity under a light regime of 12 h light/12 h darkness in a climate cabinet and the activity of a compound is assessed as percent disease control compared to untreated when an appropriate level of disease damage appears in untreated check leaf disks (5-7 days after application).

[3] = system: Blumeria graminis f. sp. tritici; experiment: Blumeria graminis f. sp. tritici / wheat / leaf disc preventative (powdery mildew); format: in vivo; details: foliar, inoculated 1 day after application
Experimental: Example B7: Blumeria graminis f. Sp. Tritici (Erysiphe graminis f. Sp. Tritici)/Wheat/Leaf Disc Preventative (Powdery Mildew on Wheat) Wheat leaf segments cv. Kanzler are placed on agar in a multiwell plate (24-well format) and sprayed with the formulated test compound diluted in water. The leaf disks are inoculated by shaking powdery mildew infected plants above the test plates 1 day after application. The inoculated leaf disks are incubated at 20° C. and 60% relative humidity under a light regime of 24 h darkness followed by 12 h light/12 h darkness in a climate chamber and the activity of a compound is assessed as percent disease control compared to untreated when an appropriate level of disease damage appears on untreated check leaf segments (6-8 days after application).

C#Cc1ccc(-c2cc(C(=O)N3Cc4ccccc4C(c4cnn(C)c4)C3)no2)c(F)c1 (stereo not shown) [Compound P-31, [5-(4-ethynyl-2-fluoro-phenyl)isoxazol-3-yl]-[4-(1-methylpyrazol-4-yl)-3,4-dihydro-1H-isoquinolin-2-yl]methanone]
≥ 80%: pest or weed control at 200 ppm [1]

Cn1cc(C2CN(C(=O)c3cc(-c4ccc(F)cc4F)on3)Cc3ccccc32)cn1 (stereo not shown) [Compound P-180, [5-(2,4-difluorophenyl)isoxazol-3-yl]-[4-(1-methylpyrazol-4-yl)-3,4-dihydro-1H-isoquinolin-2-yl]methanone]
≥ 80%: inhibition of growth at 20 ppm (Botryotinia fuckeliana) | inhibition of growth at 20 ppm (Sclerotinia sclerotiorum) | pest or weed control at 200 ppm (Alternaria solani) | inhibition of growth at 20 ppm [2] | inhibition of growth at 20 ppm (Mycosphaerella arachidis) | inhibition of growth at 20 ppm (Glomerella lagenarium) | pest or weed control at 200 ppm (Pyrenophora teres) | inhibition of growth at 20 ppm (Monographella nivalis) | pest or weed control at 200 ppm (Phaeosphaeria nodorum)

Cc1cc(C(=O)N2Cc3ccccc3C(c3cnn(C)c3)C2)no1 (stereo not shown) [Compound P-194, (5-methylisoxazol-3-yl)-[4-(1-methylpyrazol-4-yl)-3,4-dihydro-1H-isoquinolin-2-yl]methanone]
≥ 80%: inhibition of growth at 20 ppm [2] | inhibition of growth at 20 ppm (Mycosphaerella arachidis) | inhibition of growth at 20 ppm (Glomerella lagenarium) | pest or weed control at 200 ppm [1] | inhibition of growth at 20 ppm (Monographella nivalis)

Cc1ccc2c(c1)C(c1cnn(C)c1)CN(C(=O)c1cc(-c3ccc(F)cc3F)on1)C2 (stereo not shown) [Compound P-133, [5-(2,4-difluorophenyl)isoxazol-3-yl]-[6-methyl-4-(1-methylpyrazol-4-yl)-3,4-dihydro-1H-isoquinolin-2-yl]methanone]
≥ 80%: pest or weed control at 200 ppm (Alternaria solani) | inhibition of growth at 20 ppm [2] | inhibition of growth at 20 ppm (Mycosphaerella arachidis) | pest or weed control at 200 ppm [1] | inhibition of growth at 20 ppm (Monographella nivalis)

Cn1cc(C2CN(C(=O)c3cc(-c4ccccc4)on3)Cc3ccc(C(F)(F)F)cc32)cn1 (stereo not shown) [Compound P-104, [4-(1-methylpyrazol-4-yl)-6-(trifluoromethyl)-3,4-dihydro-1H-isoquinolin-2-yl]-(5-phenylisoxazol-3-yl)methanone]
≥ 80%: pest or weed control at 200 ppm (Alternaria solani) | inhibition of growth at 20 ppm [2] | inhibition of growth at 20 ppm (Mycosphaerella arachidis) | inhibition of growth at 20 ppm (Glomerella lagenarium) | pest or weed control at 200 ppm [1] | pest or weed control at 200 ppm (Pyrenophora teres) | inhibition of growth at 20 ppm (Monographella nivalis) | pest or weed control at 200 ppm (Phaeosphaeria nodorum) | pest or weed control at 200 ppm [3]

CCc1ccc(-c2cc(C(=O)N3Cc4ccccc4C(c4cnn(C)c4)C3)no2)cc1 (stereo not shown) [Compound P-171, [5-(4-ethylphenyl)isoxazol-3-yl]-[4-(1-methylpyrazol-4-yl)-3,4-dihydro-1H-isoquinolin-2-yl]methanone]
≥ 80%: pest or weed control at 200 ppm [1]

CC1c2ccccc2C(c2cnn(C)c2)CN1C(=O)c1cc(-c2ccc(F)cc2F)on1 (stereo not shown) [Compound P-141, [5-(2,4-difluorophenyl)isoxazol-3-yl]-[1-methyl-4-(1-methylpyrazol-4-yl)-3,4-dihydro-1H-isoquinolin-2-yl]methanone]
≥ 80%: inhibition of growth at 20 ppm (Botryotinia fuckeliana) | pest or weed control at 200 ppm (Alternaria solani) | inhibition of growth at 20 ppm [2] | inhibition of growth at 20 ppm (Mycosphaerella arachidis) | inhibition of growth at 20 ppm (Glomerella lagenarium) | pest or weed control at 200 ppm (Pyrenophora teres) | inhibition of growth at 20 ppm (Monographella nivalis) | pest or weed control at 200 ppm (Phaeosphaeria nodorum) | pest or weed control at 200 ppm [3]

CC1c2ccc(OCC(F)(F)F)cc2C(C)(c2cnn(C)c2)CN1C(=O)c1cc(-c2ccc(F)cc2F)on1 (stereo not shown) [Compound P-34, [5-(2,4-difluorophenyl)isoxazol-3-yl]-[1,4-dimethyl-4-(1-methylpyrazol-4-yl)-6-(2,2,2-trifluoroethoxy)-1,3-dihydroisoquinolin-2-yl]methanone]
≥ 80%: inhibition of growth at 20 ppm [2] | inhibition of growth at 20 ppm (Mycosphaerella arachidis) | pest or weed control at 200 ppm [1] | inhibition of growth at 20 ppm (Monographella nivalis)

Cn1cc(C2CN(C(=O)c3cc(-c4ccc(F)cc4F)no3)Cc3ccccc32)cn1 (stereo not shown) [Compound P-151, [3-(2,4-difluorophenyl)isoxazol-5-yl]-[4-(1-methylpyrazol-4-yl)-3,4-dihydro-1H-isoquinolin-2-yl]methanone]
≥ 80%: inhibition of growth at 20 ppm (Botryotinia fuckeliana) | pest or weed control at 200 ppm (Alternaria solani) | inhibition of growth at 20 ppm [2] | inhibition of growth at 20 ppm (Mycosphaerella arachidis) | inhibition of growth at 20 ppm (Glomerella lagenarium) | pest or weed control at 200 ppm (Pyrenophora teres) | inhibition of growth at 20 ppm (Monographella nivalis) | pest or weed control at 200 ppm (Phaeosphaeria nodorum) | pest or weed control at 200 ppm [3]

Cn1cc(C2CN(C(=O)c3cc(-c4cccs4)on3)Cc3ccccc32)cn1 (stereo not shown) [Compound P-206, [4-(1-methylpyrazol-4-yl)-3,4-dihydro-1H-isoquinolin-2-yl]-[5-(2-thienyl)isoxazol-3-yl]methanone]
≥ 80%: inhibition of growth at 20 ppm [2] | inhibition of growth at 20 ppm (Glomerella lagenarium) | pest or weed control at 200 ppm [1] | inhibition of growth at 20 ppm (Monographella nivalis)

Cc1c(C2CN(C(=O)c3nnc(-c4ccc(F)cc4)s3)Cc3ccccc32)cnn1C (stereo not shown) [Compound P-63, [4-(1,5-dimethylpyrazol-4-yl)-3,4-dihydro-1H-isoquinolin-2-yl]-[5-(4-fluorophenyl)-1,3,4-thiadiazol-2-yl]methanone]
≥ 80%: inhibition of growth at 20 ppm (Botryotinia fuckeliana) | pest or weed control at 200 ppm (Alternaria solani) | inhibition of growth at 20 ppm [2] | inhibition of growth at 20 ppm (Mycosphaerella arachidis) | inhibition of growth at 20 ppm (Glomerella lagenarium) | pest or weed control at 200 ppm (Pyrenophora teres) | inhibition of growth at 20 ppm (Monographella nivalis) | pest or weed control at 200 ppm (Phaeosphaeria nodorum) | pest or weed control at 200 ppm [3]

Cc1c(C2c3ccccc3CN(C(=O)c3cc(-c4ccc(F)cc4F)on3)C2(C)C)cnn1C (stereo not shown) [Compound P-100, [5-(2,4-difluorophenyl)isoxazol-3-yl]-[4-(1,5-dimethylpyrazol-4-yl)-3,3-dimethyl-1,4-dihydroisoquinolin-2-yl]methanone]
≥ 80%: inhibition of growth at 20 ppm (Botryotinia fuckeliana) | inhibition of growth at 20 ppm (Sclerotinia sclerotiorum) | pest or weed control at 200 ppm (Alternaria solani) | inhibition of growth at 20 ppm [2] | inhibition of growth at 20 ppm (Mycosphaerella arachidis) | inhibition of growth at 20 ppm (Glomerella lagenarium) | pest or weed control at 200 ppm (Pyrenophora teres) | inhibition of growth at 20 ppm (Monographella nivalis) | pest or weed control at 200 ppm (Phaeosphaeria nodorum)

Cn1cc(C2CN(C(=O)c3cc(-c4ccc(F)cc4F)on3)Cc3ccccc32)cn1 (single isomer, unassigned) [Compound P-143, [5-(2,4-difluorophenyl)isoxazol-3-yl]-[4-(1-methylpyrazol-4-yl)-3,4-dihydro-1H-isoquinolin-2-yl]methanone]
≥ 80%: inhibition of growth at 20 ppm (Sclerotinia sclerotiorum) | pest or weed control at 200 ppm (Pyrenophora teres)
